# Values of other authors, collected in patent publication US20040120985A1, “Food product for increasing the cognitive functional capacity” (priority 2001, published 2004).
# What was measured:
# [1] = test system: cognitive functional capacity; conditions: individuals older than 40 years, 100 mg to 300 mg per day
# aging brain = conditions: animal experimental studies
# [2] = oral administration
substance,measurement,setting,value
phosphatidyl serine,cognitive functional capacity,[1],increased
same,ATPase-dependent ion transport via the cell membrane,aging brain,improves the ATPase-dependent ion transport via the cell membrane
same,age-related breakdown of the receptors for the nerve growth factor,aging brain,partially prevents the age-related breakdown of the receptors for the nerve growth factor
same,cholesterol/phospholipid ratio in the aging brain,aging brain,normalizes the cholesterol/phospholipid ratio in the aging brain
same,neuron atrophy,aging brain,protects against neuron atrophy
same,protein kinase C balance,aging brain,normalizes the protein kinase C balance
same,formation of nerve growth factors,aging brain; effect not identified for other phospholipids,promotes the formation of nerve growth factors
same,bioavailability,[2],good
same,passage of the blood-brain barrier,[2]; after passing through the liver,crosses the blood-brain barrier
